The text below walks through data of patent publication US10927146B2, “Peptidyl ketoamides as inhibitors of rhomboid proteases” (priority 2017, dated 2021).

Molecules are shown by their SMILES. “Also recorded” adds a separate entry of the source.

Experiment [1] deals with model rhomboid protease GlpG (Escherichia coli, UniProt P09391). In words: In vitro inhibition of rhomboid protease GlpG (IC50 and Ki, as described in Ticha et al., 2017). It counts as biochemical, E. coli. The following applies: for Ki: read-out: Ki Range. An excerpt: The in vivo activity of the compounds against GlpG according to the invention is in the low nanomolar range (FIG. 1), which is up to three orders of magnitude better than any other currently used rhomboid inhibitors. The co-crystal structures of these compounds with rhomboid protease (FIG. 2) show their mode of binding into the active site of rhomboid. Without wishing to be bound by such a theory, it appears that the ketoamide warhead covalently bonds to the catalytic serine, and extensively hydrogen bonds throughout the active site. The tail at the ketoamide nitrogen interacts with the S2′ pocket of rhomboid, engaging in a number of van der Waals contacts.

For experiment [2], the system named is Plasmodium falciparum rhomboid 4 (PfROM4). In words: PfROM4 cell culture assay: shedding of EBA175 in transfected HEK293ET cells. It is filed as cell-based. To be noted: HEK293ET cells transfected with PfROM4 and substrate EBA175; approximate, FIG. 3. An excerpt:
(A) HEK293ET cells were transfected with plasmids encoding PfROM4 and its substrate EBA175, and the shedding of EBA175 by PfROM4 into the medium under various concentrations of Compound 16 was quantitated by near-infrared fluorescence detected Western blotting. (B) Dose-response analysis of PfROM4 inhibition by Compound 16.

The Ki is the dissociation constant of the complex between target and ligand, obtained from inhibition or displacement. As usually defined, the IC50 is the midpoint of a concentration-inhibition curve. A lower IC50 goes with higher potency.

Sequence of model rhomboid protease GlpG (P09391 whole entry): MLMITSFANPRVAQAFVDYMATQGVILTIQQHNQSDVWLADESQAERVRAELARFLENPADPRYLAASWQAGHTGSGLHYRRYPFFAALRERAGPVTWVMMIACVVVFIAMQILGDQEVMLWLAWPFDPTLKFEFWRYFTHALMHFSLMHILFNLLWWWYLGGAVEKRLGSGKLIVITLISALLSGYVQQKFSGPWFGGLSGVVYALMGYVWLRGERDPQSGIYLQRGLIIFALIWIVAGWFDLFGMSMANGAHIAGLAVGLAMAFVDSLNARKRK

Take `CC(=O)C(=O)[C@H](CCCNC(=N)N)NC(=O)[C@@H](NC(=O)[C@H](CCCNC(=N)N)NC(=O)[C@H](Cc1cnc[nH]1)NN[C@@H](C)C(=O)C(=O)NCCc1ccccc1)C(C)C` [Compound 9]: the Ki in experiment [1] fell in the range of 10 to 100 nM.
`CC(=O)C(=O)[C@@H](NC(=O)[C@H](CCCNC(=N)N)NC(=O)[C@H](Cc1cnc[nH]1)NN[C@@H](C)C(=O)C(=O)NCCc1ccccc1)C(C)C` [Compound 12] returned an IC50 in experiment [1] of 550 nM.
Turning to `CC(=O)C(=O)[C@H](CCCNC(=N)N)NC(=O)[C@@H](NC(=O)[C@H](Cc1c[nH]c2ccccc12)NC(=O)[C@H](Cc1cnc[nH]1)NN[C@@H](C)C(=O)C(=O)NCCCCc1ccccc1)C(C)C` [Compound 16], the “IC50 of PfROM4 inhibition” value in experiment [2] is on record as “micro- to submicromolar range; also recorded: micromolar to submicromolar concentrations”.
`CC(=O)C(=O)[C@H](CCCNC(=N)N)NC(=O)[C@@H](NC(=O)[C@H](CCCNC(=N)N)NC(=O)[C@H](Cc1cnc[nH]1)NN[C@@H](C)C(=O)C(=O)NCCCCc1ccccc1)C(C)C` [Compound 11]: the Ki in experiment [1] was 10 to 100 nM.
Still for that read-out and setting: for `CC(=O)C(=O)[C@H](CCCNC(=N)N)NC(=O)[C@@H](NC(=O)[C@H](CCCNC(=N)N)NC(=O)[C@H](Cc1cnc[nH]1)NN[C@@H](C)C(=O)C(=O)NCc1cc(C)ccc1C)C(C)C` [Compound 10] the value was 10 to 100 nM.
